Test results published in patent US20070117743A1, “New antitumoral compounds” (priority 2003, published 2007).
Read-outs that look alike come from different tables or passages of the source. Where a SMILES comes first, the peptide text is derived from it. Bridges are numbered along the chain shown (N, C = ends). [ ]: non-standard residue; d: D form. The star is where a group is joined. d(aIle) = CC[C@H](C)[C@@H](N)C(=O)O; d(aThr) = C[C@@H](O)[C@@H](N)C(=O)O; Hexanoyl(5-Me) = CC(C)CCCC(=O)*; Orn = NCCC[C@H](N)C(=O)O; Dhb = C/C=C(\N)C(=O)O

Legend:
Assay type in all cases: cell-based, human
A-549 = assay: SRB colorimetric assay of cell growth and viability, A-549; conditions: 48 hours exposure; for GI50: read-out: GI50 A-549; for CC50: read-out: LC50 A-549
SK-MEL-28 = assay: SRB colorimetric assay of cell growth and viability, SK-MEL-28; conditions: 48 hours exposure; for CC50: read-out: LC50 MEL-28
HT-29 = assay: SRB colorimetric assay of cell growth and viability, HT-29; conditions: 48 hours exposure; for GI50: read-out: GI50 HT-29; for CC50: read-out: LC50 HT-29
LoVo = assay: SRB colorimetric assay of cell growth and viability, LoVo; conditions: 48 hours exposure; for CC50: read-out: LC50 LOVO
LoVo-Dox = assay: SRB colorimetric assay of cell growth and viability, LoVo-Dox; conditions: 48 hours exposure; for CC50: read-out: LC50 LOVO-DOX
Summary of the method: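 First, 5×10^3 cells per well attach for 18 hours in RPMI 1640 with 10% FBS at 37° C and 5% CO2. Next, samples spanning 10 to 10^−8 μg/mL are added for 48 hours. Finally, cells are fixed with TCA, stained with SRB for 10 minutes and read at 490 nm.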

DU-145 = assay: SRB colorimetric assay of cell growth and viability, DU-145; conditions: 48 hours exposure
LNCaP = assay: SRB colorimetric assay of cell growth and viability, LNCaP; conditions: 48 hours exposure; for GI50: read-out: GI50 LN-caP; for CC50: read-out: LC50 LN-caP
SK-BR-3 = assay: SRB colorimetric assay of cell growth and viability, SK-BR-3; conditions: 48 hours exposure
IGROV-1 = assay: SRB colorimetric assay of cell growth and viability, IGROV-1; conditions: 48 hours exposure
IGROV-ET = assay: SRB colorimetric assay of cell growth and viability, IGROV-ET; conditions: 48 hours exposure; for CC50: read-out: LC50 IGROV-ET
HeLa = assay: SRB colorimetric assay of cell growth and viability, HeLa; conditions: 48 hours exposure; for CC50: read-out: LC50 HELA
HeLa-APL = assay: SRB colorimetric assay of cell growth and viability, HeLa-APL; conditions: 48 hours exposure; for CC50: read-out: LC50 HELA-APL
K-562 = assay: SRB colorimetric assay of cell growth and viability, K-562; conditions: 48 hours exposure; for CC50: read-out: LC50 K-562
PANC-1 = assay: SRB colorimetric assay of cell growth and viability, PANC-1; conditions: 48 hours exposure; for CC50: read-out: LC50 PANC-1

C/C=C1\NC(=O)[C@H](Cc2ccccc2)NC(=O)[C@@H](C(C)C)NC(=O)[C@@H]([C@@H](C)CC)NC(=O)[C@H](NC(=O)[C@H](NC(=O)[C@H](CCCN)NC(=O)[C@H]2CCCN2C(=O)[C@H](NC(=O)[C@@H](NC(=O)[C@H](CCC(N)=O)NC(=O)CCCC(C)C)C(C)C)C(C)C)[C@@H](C)CC)[C@@H](C)OC(=O)[C@H](C(C)C)NC1=O [Compound 58, [Gln^12, noD-Val^13]-KF] ({Hexanoyl(5-Me)}-QV[dV][dP][Orn][d(aIle)][d(aThr)][d(aIle)][dV]F[Dhb]V; ester 7-C)
TGI A-549 (A-549; SRB): 7.11E−06 Molar
GI50 (A-549; SRB): ≥ 7110 nM
CC50 (A-549; SRB): ≥ 7110 nM
GI50 (SK-MEL-28): ≥ 7110 nM
TGI MEL-28 (SK-MEL-28): 7.11E−06 Molar
CC50 (SK-MEL-28): ≥ 7110 nM
TGI HT-29 (HT-29; SRB): 7.11E−06 Molar
GI50 (HT-29; SRB): ≥ 7110 nM
CC50 (HT-29; SRB): ≥ 7110 nM
GI50 (LoVo; SRB): ≥ 7110 nM
TGI LOVO (LoVo; SRB): 7.11E−06 Molar
CC50 (LoVo; SRB): ≥ 7110 nM
GI50 (LoVo-Dox; SRB): ≥ 7110 nM
TGI LOVO-DOX (LoVo-Dox; SRB): 7.11E−06 Molar
CC50 (LoVo-Dox; SRB): ≥ 7110 nM
GI50 (DU-145): ≥ 7110 nM
LC50 (concentration causing 50% net cell kill) (DU-145): ≥ 7110 nM
TGI DU-145 (DU-145): 7.11E−06 Molar
TGI LN-caP (LNCaP): 7.11E−06 Molar
GI50 (LNCaP): ≥ 7110 nM
CC50 (LNCaP): ≥ 7110 nM
GI50 (SK-BR-3): ≥ 7110 nM
LC50 (SK-BR-3): ≥ 7110 nM
TGI SK-BR-3 (SK-BR-3): 7.11E−06 Molar
GI50 (IGROV-1): ≥ 7110 nM
LC50 (concentration causing 50% net cell killing) (IGROV-1): ≥ 7110 nM
TGI IGROV (IGROV-1): 7.11E−06 Molar
GI50 (IGROV-ET): ≥ 7110 nM
TGI IGROV-ET (IGROV-ET): 7.11E−06 Molar
CC50 (IGROV-ET): ≥ 7110 nM
GI50 (HeLa; SRB): ≥ 7110 nM
TGI HELA (HeLa; SRB): 7.11E−06 Molar
CC50 (HeLa; SRB): ≥ 7110 nM
GI50 (HeLa-APL; SRB): ≥ 7110 nM
TGI HELA-APL (HeLa-APL; SRB): 7.11E−06 Molar
CC50 (HeLa-APL; SRB): ≥ 7110 nM
GI50 (K-562; SRB): ≥ 7110 nM
TGI K-562 (K-562; SRB): 7.11E−06 Molar
CC50 (K-562; SRB): ≥ 7110 nM
GI50 (PANC-1; SRB): ≥ 7110 nM
TGI PANC-1 (PANC-1; SRB): 7.11E−06 Molar
CC50 (PANC-1; SRB): ≥ 7110 nM

C/C=C1\NC(=O)[C@H](Cc2ccccc2)NC(=O)[C@@H](C(C)C)NC(=O)[C@@H](C(C)CC)NC(=O)[C@H](NC(=O)[C@H](NC(=O)[C@H](CCCN)NC(=O)[C@H]2CCCN2C(=O)[C@H](NC(=O)[C@@H](NC(=O)[C@@H](NC(=O)[C@H](NC(=O)CCC(C)CC)C(C)C)C(C)O)C(C)C)C(C)C)C(C)CC)C(C)OC(=O)[C@H](C(C)C)NC1=O (stereo partly drawn) [Compound 1, (4S)-MeHex-D-Val-ThrVal-D-Val-D-Pro-Orn-D-allo-Ile-cyclo[D-allo-Thr-D-allo-Ile-D-Val-Phe-(Z)Dhb-Val]]
TGI A-549 (A-549): 2.05E−06 Molar
GI50 (A-549): 907 nM
CC50 (A-549): 4630 nM
GI50 (SK-MEL-28): 315 nM
TGI MEL-28 (SK-MEL-28): 4.10E−07 Molar
CC50 (SK-MEL-28): 2100 nM
TGI HT-29 (HT-29): 2.18E−07 Molar
GI50 (HT-29): 95.4 nM
CC50 (HT-29): 498 nM
GI50 (LoVo): 116 nM
TGI LOVO (LoVo): 2.42E−07 Molar
CC50 (LoVo): 502 nM
GI50 (LoVo-Dox): 63.6 nM
TGI LOVO-DOX (LoVo-Dox): 2.29E−07 Molar
CC50 (LoVo-Dox): 1430 nM
GI50 (DU-145): 327 nM
LC50 (concentration causing 50% net cell kill) (DU-145): 2540 nM
TGI DU-145 (DU-145): 8.80E−07 Molar
TGI LN-caP (LNCaP): 2.14E−06 Molar
GI50 (LNCaP): 900 nM
CC50 (LNCaP): 5080 nM
GI50 (SK-BR-3): 43.4 nM
LC50 (SK-BR-3): 469 nM
TGI SK-BR-3 (SK-BR-3): 9.27E−08 Molar
GI50 (IGROV-1): 158 nM
LC50 (concentration causing 50% net cell killing) (IGROV-1): 641 nM
TGI IGROV (IGROV-1): 3.19E−07 Molar
GI50 (IGROV-ET): 135 nM
TGI IGROV-ET (IGROV-ET): 2.89E−07 Molar
CC50 (IGROV-ET): 619 nM
GI50 (HeLa): 254 nM
TGI HELA (HeLa): 7.38E−07 Molar
CC50 (HeLa): 2560 nM
GI50 (HeLa-APL): 556 nM
TGI HELA-APL (HeLa-APL): 1.52E−06 Molar
CC50 (HeLa-APL): 3810 nM
GI50 (K-562): 1620 nM
TGI K-562 (K-562): 2.96E−06 Molar
CC50 (K-562): 5400 nM
GI50 (PANC-1): 1820 nM
TGI PANC-1 (PANC-1): 3.66E−06 Molar
CC50 (PANC-1): ≥ 6770 nM
